According to patent publication US20230123585A1, “COMPOSITIONS AND METHODS FOR TREATING OR PREVENTING CANCER USING DEUBIQUITINASE INHIBITORS” (The University of Chicago, priority 2020, published 2023):

Tests used:
A375 and HCT116 cells = assay: Cell viability by SRB assay of A375 and HCT116 cells treated with Ezh2 inhibitors without or with EOAI; assay type: cell-based; conditions: 48 hr; A375: GSK343 10 μM, UNC1999 5 μM, 0.5 μM EOAI; HCT116: GSK343 10 μM, UNC1999 10 μM, 1 μM EOAI
Procedure: FIGS. 20A-20B: (A) A375 cells were treated with GSK343 10 μM, UNC1999 5μM without or with 0.5 μM EOAI3402143 (EOAI) for 48 hr before measuring cell viability by SRB assay. Data are presented as relative to the R-WT cells without drug treatment (n=3 per group, data represent mean±SEM). (B) HCT116 cells were treated with GSK343 10 μM, UNC1999 10 μM without or with 1 μM EOAI3402143 (EOAI) for 48 hr before measuring cell viability by SRB assay. Data are presented as relative to the R-WT cells without drug treatment (n=3 per group, data represent mean±SEM).
Cell Proliferation Assay. Cells were seeded in 96-well plates. The cell proliferation was assessed by SRB assay (Vichai and Kirtikara, 2006) at various time points. Briefly, cells after treatments were fixed with 10% TCA then stained with 0.05% SRB. After wash, bound SRB was solubilized with 10 mM Trizma base and measured at 515 nm.

PDAC cell lines = assay: Inhibition rates of JQ1 in a panel of 9 PDAC cell lines; assay type: cell-based
Description: (§1) FIGS. 15A-15D: The results of the inhibition rates of JQ1 in different PDAC cell lines. (B) The correlation analysis of gene expression of BRD family genes and METTL3 in PDAC from TGCA and GTEx database. (C) The polyA RNA m6A level changes upon JQ1 treatment compared to the DMSO control in different PDAC cell lines. (D) The cell viability changes with JQ1 treatment with a series concentrations in the JQ1-insensitive cells upon the knockdown of METTL3 and the JQ1-sensitive cells upon the overexpression of METTL3 compared to control.

[1] = tested on: polyA RNA m^6A in JQ1-sensitive cells (Mia cell); assay: polyA RNA m^6A level upon JQ1 treatment in JQ1-sensitive PDAC cells; assay type: cell-based
Description: as §1, with “control. […]” for “control.”
(§2) LC-MS/MS quantification of m^6A in poly(A) RNA. mRNA was extracted from the total RNA using 2 rounds of the Dynabeads mRNA purification kit. […] The nucleosides were quantified by using the nucleoside-to-base ion mass transitions of 282 to 150 (m^6A) and 268 to 136 (A). Quantification was carried out by comparison with a standard curve obtained from pure nucleoside. The ratio of m^6A to A was calculated based on the calibrated concentrations (Liu et al., 2018).

[2] = tested on: polyA RNA m^6A in JQ1-insensitive cells (8902 cell line); assay: polyA RNA m^6A level upon JQ1 treatment in JQ1-insensitive PDAC cells; assay type: cell-based
Description: as §1, with “control. […]” for “control.”
as §2

[3] = tested on: JQ1-insensitive PDAC cells; assay: Cell viability with JQ1 in JQ1-insensitive cells upon knockdown of METTL3; assay type: cell-based; conditions: series of JQ1 concentrations
Description: as §1

JQ1-sensitive PDAC cells = assay: Cell viability with JQ1 in JQ1-sensitive cells upon overexpression of METTL3; assay type: cell-based; conditions: series of JQ1 concentrations
Description: as §1

METTL3 in 8902 cell line = assay: METTL3 RNA and protein level changes with JQ1 treatment in JQ1-insensitive cells; assay type: cell-based; conditions: 8902 cell line (JQ1-insensitive)
Description: (§3) FIGS. 16A-16B: (A) The protein level changes of METTL3 with JQ1 treatment in the JQ1-insensitive cells compared to DMSO control (left); the RNA level changes of METTL3 the JQ1-insensitive cells with JQ1 treatment compared to DMSO control (mid); the polyA RNA m6A level changes in JQ1-insensitive cells among the knockdown control and DMSO control samples, the knockdown control and JQ1 treatment samples, the METTL3 knockdown and DMSO control, and the METTL3 knockdown and JQ1 treatment samples (right). (B) The protein level changes of METTL3 with JQ1 treatment in the JQ1-sensitive cells compared to DMSO control (left); the RNA level changes of METTL3 the JQ1-sensitive cells with JQ1 treatment compared to DMSO control (mid); the polyA RNA m6A level changes in JQ1-sensitive cells among the knockdown control and DMSO control samples, the knockdown control and JQ1 treatment samples, the METTL3 knockdown and DMSO control, and the METTL3 knockdown and JQ1 treatment samples (right).

METTL3 in Mia cell = assay: METTL3 RNA and protein level changes with JQ1 treatment in JQ1-sensitive cells; assay type: cell-based; conditions: dose-dependent
Description: as §3

ubiquitination of METTL3 = assay: Ubiquitination of METTL3 in A375 cells transfected with HA-ubiquitin (IP anti-METTL3, immunoblot anti-HA); assay type: cell-based, human; conditions: 10 μM MG-132 and 10 μM EOAI3402143 or 30 μM vialinin A for 8 h
Procedure: (§4) FIGS. 11A-11G: USP5 is Required for ERK-Mediated METTL3 Stabilization. (A) A375 cells transfected with HA-ubiquitin (ub) were treated with 10 μM MG-132 and MEK inhibitor PD0325901 for 8 h. The ubiquitination of METTL3 was detected by IP with anti-METTL3 and immunoblot with anti-HA. (B) After 8 h treatment with 10 μM PD0325901 with or without 10 μM MG-132, cell lysates from A375 cells were analyzed by immunoblot. (C) A375 cells were treated with various concentrations of PD0325901 for 1 h. Cell lysates were subjected to IP with METTL3 antibody followed by immunoblot. (D) 293T cells transfected as indicated were subjected to IP/immunoblot analysis. (E) Immunofluorescence analysis of myc-METTL3 (green) in mESC stable transfectants. DAPI (blue) was used to mark the nucleus. (F) Lysates of 293T cells transfected as indicated were subjected to IP with anti-Flag antibody followed by immunoblot. (G) Immunofluorescence analysis of 293T cells co-transfected with myc-METTL3 (green), Flag-USP5 (red) with or without constitutively active B-RAF.
FIGS. 14A-14I: Phosphorylation of the m^6A Methyltransferase Complex May Affect Tumorigenesis. […] (B) LC-MS/MS quantification of the m^6A/A ratio in mRNA of melanoma cell lines. (C) After 8 h treatment with 10 μM PD0325901 or 0.1 μM tramentib, cell lysates from HCT-116 cells were analyzed by immunoblot. […] The ubiquitination of METTL3 was detected by IP with anti-METTL3 and immunoblot with anti-HA. (F) After 8 hr treatment with 10 μM EOAI3402143 (EOAI) or 30 μM vialinin A, cell lysates from HCT-116 cells were analyzed by immunoblot. […] (I) LC-MS/MS quantification of the m^6A/A ratio in mRNA of breast cancer cell lines.
Immunoprecipitation, immunoblotting, and in vitro kinase assay. […] Primary antibodies were detected by HRP-linked secondary antibodies (Cell Signaling) together with SuperSignal West Pico Plus chemiluminescent substrate (Thermo Scientific) and imaged in a FluorChem R system (ProteinSimple).

[4] = tested on: METTL3 / m^6A methyltransferase complex in A375 cells; assay: Immunoblot of METTL3 / m^6A methyltransferase complex protein in A375 cell lysates; assay type: cell-based, human; conditions: A375 cells (also HCT-116, FIG. 14F), 8 hr, 10 μM EOAI3402143 or 30 μM vialinin A
Procedure: (§5) FIGS. 6A-6H: Phosphorylation of the m^6A Methyltransferase Complex May Affect Tumorigenesis. (A) Lysates of A375 stable transfectants harvested at different time points after treatment with cycloheximide (CHX) 10 μg/ml were analyzed by immunoblot. (B) LC-MS/MS quantification of the m^6A/A ratio in mRNA of A375 stable transfectants. (C) After 8 h treatment with 10 μM PD0325901 or 0.1 μM tramentib, cell lysates from A375 cells were analyzed by immunoblot. (D) LC-MS/MS quantification of the m^6A/A ratio in mRNA of A375 cells treated with 10 μM PD0325901 or 0.1 μM tramentib for 48 h. (E) After 8hr treatment with 10 μM EOAI3402143 (EOAI) or 30 μM vialinin A , cell lysates from A375 cells were analyzed by immunoblot. (F) A375 stable transfectants as indicated were treated with 3 μM EOAI3402143 (EOAI) or 10 μM vialinin A before measuring cell viability by SRB assay. Data are presented as relative to the R-WT cells without drug treatment (n=3 per group, data represent mean±SEM). (G) Immunofluorescence analysis of METTL3 (green) in SKBR3 cells treated with 1 μM tucatinib and 1 μM lapatinib for 8 hr. DAPI (blue) was used to mark the nucleus. (H) LC-MS/MS quantification of the m^6A/A ratio in mRNA of SKBR3 and BT474 cells treated with 1 μM tucatinib and 1 μM lapatinib for 48 h. (See also FIG. 14.)
as §4
Immunoprecipitation, immunoblotting, and in vitro kinase assay. Immunoprecipitation (IP) and immunoblotting (IB) were performed as previously described (Sun et al., 2016). In brief, protein samples were isolated from respective cells by lysis in RIPA buffer (1% Triton X-100, 150 mM NaCl, 20 mM Na2PO4, pH 7.4) containing Halt Protease and Phosphatase Inhibitor Cocktail (Thermo Scientific). Subsequently, a BCA assay (Thermo Scientific) was used to determine the protein concentrations. For IP, indicated antibody and protein A/G magnetic beads (Thermo Scientific) were incubated with lysate at 4° C. overnight followed by washing and elution with sample buffer. Equal amounts of protein were separated by SDS-PAGE followed by wet transfer to PVDF membranes. Blots were blocked with 5% non-fat milk or BSA and incubated with respective primary antibody at 4° C. overnight. Primary antibodies were detected by HRP-linked secondary antibodies (Cell Signaling) together with SuperSignal West Pico Plus chemiluminescent substrate (Thermo Scientific) and imaged in a FluorChem R system (ProteinSimple).

[5] = tested on: A375 and HCT-116 stable transfectants; assay: Cell viability by SRB assay of A375 and HCT-116 stable transfectants treated with USP5 inhibitors; assay type: cell-based; conditions: A375 1 μM, HCT-116 2 μM EOAI, 48 hr
Procedure: as §5, with “(F) A375 stable transfectants as indicated were treated with 3 μM EOAI3402143 (EOAI) or 10 μM vialinin A before measuring cell viability by SRB assay. Data are presented as relative to the R-WT cells without drug treatment (n=3 per group, data represent mean±SEM). (G) Immunofluorescence analysis of METTL3 (green) in SKBR3 cells treated with 1 μM tucatinib and 1 μM lapatinib for 8 hr. DAPI (blue) was used to mark the nucleus.” left out, “(See also FIG. 14.)” left out
FIGS. 14A-14I: Phosphorylation of the m^6A Methyltransferase Complex May Affect Tumorigenesis. […] (B) LC-MS/MS quantification of the m^6A/A ratio in mRNA of melanoma cell lines. (C) After 8 h treatment with 10 μM PD0325901 or 0.1 μM tramentib, cell lysates from HCT-116 cells were analyzed by immunoblot. […] The ubiquitination of METTL3 was detected by IP with anti-METTL3 and immunoblot with anti-HA. (F) After 8 hr treatment with 10 μM EOAI3402143 (EOAI) or 30 μM vialinin A, cell lysates from HCT-116 cells were analyzed by immunoblot. […]

With `CCCc1cc(C)[nH]c(=O)c1CNC(=O)c1cc(-c2ccc(N3CCN(C(C)C)CC3)nc2)cc2c1cnn2C(C)C` [UNC199] as the compound, how does the “combination effect on cell viability with the USP5 inhibitor EOAI” value (A375 and HCT116 cells) read?
Its value is “synergism”.

Which results are given for `Cc1sc2c(c1C)C(c1ccc(Cl)cc1)=N[C@@H](CC(=O)OC(C)(C)C)c1nnc(C)n1-2` [JQ1]?
inhibition effect (anticancer activity) (PDAC cell lines): varies among different cell types; polyA RNA m^6A ([1]; JQ1-sensitive PDAC cells, versus DMSO control): dramatically decreased; polyA RNA m^6A level ([1]; Mia cell (JQ1-sensitive), dose-dependent): dramatic decreases; polyA RNA m^6A, JQ1 treatment after METTL3 knockdown ([2]; 8902 cell line (JQ1-insensitive)): further reduced; polyA RNA m^6A changes ([2]; JQ1-insensitive PDAC cells, versus DMSO control): moderate to negligible; viability of JQ1-insensitive cells, knockdown of METTL3 together with JQ1 treatment [3]: synergistically reduce; effect of JQ1 treatment upon overexpression of METTL3 in JQ1-sensitive cell (JQ1-sensitive PDAC cells): inhibits; METTL3 RNA level (METTL3 in 8902 cell line): moderate effect; METTL3 protein level (METTL3 in 8902 cell line): less of an effect; METTL3 RNA level (METTL3 in Mia cell): dramatic decreases; METTL3 protein level (METTL3 in Mia cell): dramatic decreases

How did the “combination effect on cell viability with the USP5 inhibitor EOAI” value (A375 and HCT116 cells) turn out when `CCCc1cc(C)[nH]c(=O)c1CNC(=O)c1cc(-c2ccnc(N3CCN(C)CC3)c2)cc2c1cnn2C(C)C` [GSK343] was run?
The value was “synergism”.

Which “ubiquitination of METTL3” value (ubiquitination of METTL3) does the source give for `CCCC(NC(=O)/C(C#N)=C/c1nc(Cl)ccc1Cl)c1ccc(OCCN2CCOCC2)cc1` (centres unmarked) [EOAI3402143] here?
Its value is “increased”.

What about the METTL3 protein level [4] of the same compound?
The METTL3 protein level was “decreased”.

What about the “effect of knockdown of METTL3 on sensitivity of cells to the USP5 inhibitor” value [5] of the same compound?
Its value is “sensitized”.

What about the “effect of overexpression of METTL3 on sensitivity of cells to the USP5 inhibitor” value [5] of the same compound?
Its value is “attenuated”.
